Laboratory results published in US20170037028A1 (BAYER PHARMA AKTIENGESELLSCHAFT, priority 2013, published 2017).

What follows are compounds tested against T1, GLUT1 (Homo sapiens, UniProt P11166) (assay: Indirect measurement of GLUT1 activity by quantification of intracellular ATP levels (glucose induced ATP increase)). Conditions: read-out: IC50 regarding glucose induced ATP increase (GLUT1 inhibition).
T1 sequence (P11166 1-492): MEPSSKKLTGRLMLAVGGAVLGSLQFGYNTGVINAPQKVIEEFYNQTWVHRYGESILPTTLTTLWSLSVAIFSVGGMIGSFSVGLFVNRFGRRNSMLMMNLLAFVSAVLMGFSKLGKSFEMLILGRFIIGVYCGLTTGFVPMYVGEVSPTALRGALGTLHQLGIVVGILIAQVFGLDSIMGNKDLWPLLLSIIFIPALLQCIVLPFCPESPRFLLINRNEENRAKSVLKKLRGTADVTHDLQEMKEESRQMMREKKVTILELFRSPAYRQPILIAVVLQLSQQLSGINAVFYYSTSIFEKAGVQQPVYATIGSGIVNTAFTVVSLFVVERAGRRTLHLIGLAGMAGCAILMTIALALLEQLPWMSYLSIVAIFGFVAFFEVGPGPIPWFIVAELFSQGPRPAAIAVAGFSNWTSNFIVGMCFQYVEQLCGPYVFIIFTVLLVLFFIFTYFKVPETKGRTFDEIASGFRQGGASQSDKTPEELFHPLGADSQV
Type: cell-based
Design: endogenous in cells; host or cells: DLD1 or CHO-K1
Method in brief: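 DLD1 or CHO-K1 cells were starved overnight in glucose-free medium with 1% FCS, then combined with an oxidative phosphorylation inhibitor. GLUT1 activity was read as glucose-induced ATP increase, GLUT2 as fructose-induced. Intracellular ATP was quantified by CellTiter-Glo luminescence.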

IC50 [nM]	Compound
0.5	Cc1nn(Cc2ccc(C#N)cc2)c(C)c1NC(=O)c1cc(C(N)=O)nc2ccc(Cl)cc12 [Example 261, 6-chloro-N^4-[1-(4-cyanobenzyl)-3,5-dimethyl-1H-pyrazol-4-yl]quinoline-2,4-dicarboxamide]
418	Cc1c(NC(=O)c2cc(C(N)=O)nc3cc(F)ccc23)c(C(F)(F)F)nn1Cc1ccc(C(=O)O)cc1 [Example 368, 4-{[4-{[(2-carbamoyl-7-fluoroquinolin-4-yl)carbonyl]amino}-5-methyl-3-(trifluoromethyl)-1H-pyrazol-1-yl]methyl}benzoic acid]
1.5	Cc1nn(Cc2ccccc2C#N)c(C)c1NC(=O)c1cc(C(N)=O)nc2c(F)cc(Cl)cc12 [Example 269, 6-chloro-N^4-[1-(2-cyanobenzyl)-3,5-dimethyl-1H-pyrazol-4-yl]-8-fluoroquinoline-2,4-dicarboxamide]
22.5	CCc1nc(Cn2nc(C(F)(F)F)c(NC(=O)c3cc(C(N)=O)nc4ccccc34)c2C)no1 [Example 1535]
0.6	Cc1nn(Cc2ccccc2C#N)c(C)c1NC(=O)c1cc(C(N)=O)nc2ccc(Br)cc12 [Example 268, 6-bromo-N^4-[1-(2-cyanobenzyl)-3,5-dimethyl-1H-pyrazol-4-yl]quinoline-2,4-dicarboxamide]
15.7	COc1cc(C(=O)Nc2c(C)nn(CCCc3ccc(C#N)cc3)c2C)c2ccccc2n1 [Example 349, N-{1-[3-(4-cyanophenyl)propyl]-3,5-dimethyl-1H-pyrazol-4-yl}-2-methoxyquinoline-4-carboxamide]
1.2	CC(=O)c1ccc(Cn2nc(C)c(NC(=O)c3cc(C(N)=O)nc4cccc(F)c34)c2C)cc1 [Example 1609]
59.4	Cc1nn(Cc2cn3ccccc3n2)c(C)c1NC(=O)c1cc(C(F)(F)F)nc2ccc(Br)cc12 [Example 1528]
43.5	COc1cc(C(=O)Nc2c(C)nn(Cc3ncccc3C#N)c2C)c2ccccc2n1 [Example 1102]
6	CCc1nn(Cc2ccc(C#N)cc2)c(CC)c1NC(=O)c1cc(C(N)=O)nc2cc(F)c(Cl)cc12 [Example 311, 6-chloro-N^4-[1-(4-cyanobenzyl)-3,5-diethyl-1H-pyrazol-4-yl]-7-fluoroquinoline-2,4-dicarboxamide]
31.8	CCCCS(=O)(=O)N1CCC(Cn2nc(C)c(NC(=O)c3cc(C(N)=O)nc4ccccc34)c2C)CC1 [Example 1511]
54.4	Cc1nn(CC2CCCCC2)c(C)c1NC(=O)c1cc(C(F)(F)F)nc2ccc(Br)cc12 [Example 170, 6-bromo-N-[1-(cyclohexylmethyl)-3,5-dimethyl-1H-pyrazol-4-yl]-2-(trifluoromethyl)quinoline-4-carboxamide]
281	Cc1nn(Cc2ccc(F)cc2)c(C)c1NC(=O)c1cc(C(F)(F)F)nc2cc(Br)ccc12 [Example 88, 7-bromo-N-[1-(4-fluorobenzyl)-3,5-dimethyl-1H-pyrazol-4-yl]-2-(trifluoromethyl)quinoline-4-carboxamide]
9.4	Cc1nn(Cc2ccc(C(=O)Nc3cccnc3)cc2)c(C)c1NC(=O)c1cc(C(F)(F)F)nc2ccc(Br)cc12 [Example 1045]
69.2	Cc1nn(CC2CCN(S(=O)(=O)C3CCCC3)CC2)c(C)c1NC(=O)c1cc(C(N)=O)nc2ccccc12 [Example 1518]
15.6	Cc1nn(Cc2ccc(C(=O)NCC(F)(F)F)cc2)c(C)c1NC(=O)c1cc(C(F)(F)F)nc2ccc(Br)cc12 [Example 1059]
4.4	Cc1c(NC(=O)c2cc(C(N)=O)nc3ccccc23)c(C(F)(F)F)nn1Cc1ccc(C#N)cn1 [Example 361, N^4-{1-[(5-cyanopyridin-2-yl)methyl]-5-methyl-3-(trifluoromethyl)-1H-pyrazol-4-yl}quinoline-2,4-dicarboxamide]
146	COc1cccc(Cn2nc(C)c(NC(=O)c3cc(C(F)(F)F)nc4c(Cl)cc(Cl)cc34)c2C)c1 [Example 67, 6,8-dichloro-N-[1-(3-methoxybenzyl)-3,5-dimethyl-1H-pyrazol-4-yl]-2-(trifluoromethyl)quinoline-4-carboxamide]
3.2	Cc1nn(Cc2ccc(S(C)(=O)=O)cc2)c(C)c1NC(=O)c1cc(C(F)(F)F)nc2ccc(Br)cc12 [Example 217, 6-bromo-N-{3,5-dimethyl-1-[4-(methylsulfonyl)benzyl]-1H-pyrazol-4-yl}-2-(trifluoromethyl)quinoline-4-carboxamide]
0.7	Cc1nn(Cc2ccc(CC#N)cc2)c(C)c1NC(=O)c1cc(C(N)=O)nc2cc(F)ccc12 [Example 1613]
277	Cc1nn(Cc2ccc(C(=O)N(C)CCO)cc2)c(C)c1NC(=O)c1cc(C(F)(F)F)nc2ccc(Br)cc12 [Example 1186]
57	Cc1nn(Cc2ccc(C(=O)NC[C@H](O)CO)cc2)c(C)c1NC(=O)c1cc(C(F)(F)F)nc2ccc(Br)cc12 [Example 1112]

IC50 [nM]	Compound
1590	Cc1nn(Cc2cc(F)cc(F)c2)c(C)c1NC(=O)c1cc(C(F)(F)F)nc2c(Cl)cc(Cl)cc12 [Example 1244]
63.5	Cc1nn(Cc2cccnc2C#N)c(C)c1NC(=O)c1cc(C(F)(F)F)nc2ccc(Br)cc12 [Example 1118]
148	Cc1nn(Cc2ccccc2C#N)c(C)c1NC(=O)c1cc(C(F)(F)F)nc2c(Cl)cc(Cl)cc12 [Example 68, 6,8-dichloro-N-[1-(2-cyanobenzyl)-3,5-dimethyl-1H-pyrazol-4-yl]-2-(trifluoromethyl)quinoline-4-carboxamide]
4.1	Cc1nn(Cc2ccc(OC(F)(F)F)cc2)c(C)c1NC(=O)c1cc(C(N)=O)nc2cc(F)c(Cl)cc12 [Example 1463]
243	Cc1c(NC(=O)c2cc(C(N)=O)nc3cc(F)ccc23)c(C(F)(F)F)nn1Cc1ccc(C(=O)N(C)C)cc1 [Example 371, N^4-{1-[4-(dimethylcarbamoyl)benzyl]-5-methyl-3-(trifluoromethyl)-H-pyrazol-4-yl}-7-fluoroquinoline-2,4-dicarboxamide]
54.2	COc1ccc(CCCn2nc(C)c(NC(=O)c3cc(OC)nc4ccccc34)c2C)cc1 [Example 1109]
0.4	COc1ccc(Cn2nc(C)c(NC(=O)c3cc(C(N)=O)nc4cc(F)c(F)cc34)c2C)cc1F [Example 236, 6,7-difluoro-N^4-[1-(3-fluoro-4-methoxybenzyl)-3,5-dimethyl-1H-pyrazol-4-yl]quinoline-2,4-dicarboxamide]
171	Cc1nn(Cc2ccc(C(=O)NCCCN(C)C)cc2)c(C)c1NC(=O)c1cc(C(F)(F)F)nc2ccc(Br)cc12 [Example 1167]
2.1	Cc1c(NC(=O)c2cc(C(N)=O)nc3cc(F)c(F)cc23)c(C(F)(F)F)nn1Cc1ccc(C#N)cc1 [Example 216, N^4-[1-(4-cyanobenzyl)-5-methyl-3-(trifluoromethyl)-1H-pyrazol-4-yl]-6,7-difluoroquinoline-2,4-dicarboxamide]
128	Cc1nn(Cc2ccc(C(=O)NCCN3CCCCC3)cc2)c(C)c1NC(=O)c1cc(C(F)(F)F)nc2ccc(Br)cc12 [Example 1150]
69.4	Cc1nn(Cc2ccc(C(=O)N3CCOCC3)cc2)c(C)c1NC(=O)c1cc(C(F)(F)F)nc2ccc(Br)cc12 [Example 141, 6-bromo-N-{3,5-dimethyl-1-[4-(morpholin-4-ylcarbonyl)benzyl]-1H-pyrazol-4-yl}-2-(trifluoromethyl)quinoline-4-carboxamide]
2.7	COc1cc(C#N)ccc1Cn1nc(C(F)(F)F)c(NC(=O)c2cc(C(N)=O)nc3cccc(F)c23)c1C [Example 1647]
172	Cc1c(NC(=O)c2cc(C(N)=O)nc3ccccc23)c(C(F)(F)F)nn1Cc1ccccc1OC(F)(F)F [Example 1705]
4810	COc1cc(C(=O)Nc2c(C)nn(CC3CNC(=O)O3)c2C)c2ccccc2n1 (centres unmarked) [Example 1525]
396	Cc1cccc(Cn2nc(C)c(NC(=O)c3cc(C)nc4ccc(C)cc34)c2C)c1 [Example 101, N-[3,5-dimethyl-1-(3-methylbenzyl)-1H-pyrazol-4-yl]-2,6-dimethylquinoline-4-carboxamide]
425	CCc1nn(Cc2ccc(F)cc2)c(CC)c1NC(=O)c1cc(C(N)=O)nc2c(F)cccc12 [Example 1384]
33.7	CCS(=O)(=O)N1CCC(Cn2nc(C(F)(F)F)c(NC(=O)c3cc(C(N)=O)nc4ccccc34)c2C)CC1 [Example 1546]
1.9	CCCNC(=O)c1ccc(Cn2nc(C)c(NC(=O)c3cc(C(F)(F)F)nc4ccc(Br)cc34)c2C)cc1 [Example 1020]
7.2	Cc1c(NC(=O)c2cc(C(N)=O)nc3cc(F)ccc23)c(C(C)C)nn1Cc1ccc(C#N)cc1 [Example 321, N^4-[1-(4-cyanobenzyl)-3-isopropyl-5-methyl-1H-pyrazol-4-yl]-7-fluoroquinoline-2,4-dicarboxamide]
2.8	Cc1c(NC(=O)c2cc(C(N)=O)nc3cc(F)ccc23)c(C(F)(F)F)nn1Cc1ccc(F)cc1F [Example 1435]
1.2	Cc1cc(Cn2nc(C(F)(F)F)c(NC(=O)c3cc(C(N)=O)nc4cccc(F)c34)c2C)ccc1C#N [Example 1694]
1.1	CCc1ccc(Cn2nc(C(F)(F)F)c(NC(=O)c3cc(C(N)=O)nc4ccccc34)c2C)cc1 [Example 1413]
